The numbers were not newly measured in US10543503B1, “Methods of delivery of encapsulated perfluorocarbon taggants” (Copilot Ventures Fund III LLC, priority 2011, dated 2020), which cites them from elsewhere.

One data set concerns cytochrome P-450. The conditions noted are these: PFD given to rats; hepatic metabolizing enzymes.
The subject of data set [1] is cytochrome P-450 IIA1 and IIA2 (a.k.a. cytochrome P450b and cytochrome P450e). The conditions noted are these: rats, following PFD treatment.
In data set [2] the test system is benzphetamine-N-demethylase. The settings on record: rats, following PFD treatment.
Another data set has as its system aldrin-epoxidase. The conditions noted are these: rats, following PFD treatment.
In data set [3] the test system is cytochrome P-450 IA1 and IA1. The conditions noted are these: rats, following PFD treatment; enzymes induced by 3-methylcholanthrene-type inducers.
The next data set has as its system cytochrome P450 IV. The settings on record: rats, following PFD treatment; enzyme induced by fatty acids and perfluoronated fatty acids.

`FC1(F)C(F)(F)C(F)(F)C2(F)C(F)(F)C(F)(F)C(F)(F)C(F)(F)C2(F)C1(F)F` (stereo not drawn) [PFD, perfluorodecalin]: the “induction of cytochrome P-450” value in the data set with cytochrome P-450 is listed as “induce cytochrome P-450 in a manner similar to phenobarbital”. In addition, in data set [1], the “increase of activities of cytochrome P-450 IIA1 and IIA2” value is recorded as “approximately two-fold”. In addition, the “activity of benzphetamine-N-demethylase” value in data set [2] was “increased”. Besides, the activity of aldrin-epoxidase entry in the data set with aldrin-epoxidase is “increased”. Moreover, the “activities of cytochrome P-450 IA1 and IA1” value in data set [3] is reported as “unaffected”. Also, the “activity of cytochrome P450 IV” value in the data set with cytochrome P450 IV is “unaffected”.
